pIC50: −log10 of the molar value.
Legend:
[1] = molecular target: T1, β5 subunit of the human constitutive proteasome (CPS) (Homo sapiens, UniProt P28074); experiment: β5 inhibition assay, human constitutive proteasome (Suc-LLVY-AMC); type: biochemical; conditions: IC50 class, Suc-LLVY-AMC substrate
T1 construct: purchased Boston Biochem E-360
Experimental: The enzymatic activity of the β5 subunit of the human constitutive proteasome (CPS) is analyzed. In another assay, which differs from the assay of the human constitutive proteasome only in using the human immunoproteasome (IPS) the enzymatic activity of the β5 subunit of the human immunoproteasome (IPS) is analyzed. […] Inhibition is indicated as IC50 [nM] (“-”=not measured).

HT-29 cells = experiment: CellTiter-Glo luminescent cell viability assay with HT-29 cells (72h incubation); type: cell-based, human; conditions: Homo sapiens, HT-29, HT29 cells, read-out: CTG HT29
Outline: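 400 cells per well in DMEM/10% FCS were dosed after 24 h and kept 72 h at 37 °C, 5% CO2. ATP-based luminescence (CellTiter-Glo) normalized to DMSO and 10 μM staurosporine controls; IC50 by dose-response fit.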

hPMBC = experiment: Chymotrypsin-like ProteasomeGlo assay in hPBMC; type: cell-based; conditions: Homo sapiens; read-out: Pglo hPBMC
Outline: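 B cells isolated from human PBMC (buffy coats, density gradient, magnetic isolation). Cells treated with compound for 105 min at 37 °C, with staurosporine and DMSO included. Chymotrypsin-like proteasome activity read by luminescence with Suc-LLVY-Glo substrate to derive IC50.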

| Structure (SMILES) | pIC50 [1] | pIC50 (HT-29 cells) | pIC50 (hPMBC) |
| --- | --- | --- | --- |
| CNCCOCC(=O)N[C@H]1CC(=O)N2CCCC(CCOc3ccc(C)c(c3)CNC(=O)[C@H](CCc3ccccc3)NC1=O)C2 (stereo partly drawn) [Compound 130, N-((9S,12S)-5^4-methyl-8,11,14-trioxo-9-phenethyl-4-oxa-7,10-diaza-1(3,1)-piperidina-5(1,3)-benzenacyclotetradecaphane-12-yl)-2-(2-(methylamino)ethoxy)acetamide] | > 7.00 | 6.30 to 7.00 | > 7.00 |
| Cc1ccc2cc1CNC(=O)[C@H](CCc1ccccc1)NC(=O)[C@@H](NC(=O)C1(F)CCNCC1)CC(=O)N1CCCC(CCO2)C1 (stereo partly drawn) [Compound 134, 4-fluoro-N-((9S,12S)-5^4-methyl-8,11,14-trioxo-9-phenethyl-4-oxa-7,10-diaza-1(3,1)-piperidina-5(1,3)-benzenacyclotetradecaphane-12-yl)piperidine-4-carboxamide] | > 7.00 | > 7.00 | > 7.00 |
| Cc1ccc2cc1CNC(=O)[C@H](CCc1ccccc1)NC(=O)[C@@H](NC(=O)C1CC(F)(F)CN1)CC(=O)N1CCCC(CCO2)C1 (stereo partly drawn) [Compound 135, (2S)-4,4-difluoro-N-((9S,12S)-5^4-methyl-8,11,14-trioxo-9-phenethyl-4-oxa-7,10-diaza-1(3,1)-piperidina-5(1,3)-benzenacyclotetradecaphane-12-yl)pyrrolidine-2-carboxamide] | > 7.00 | > 7.00 | > 7.00 |
| Cc1ccc2cc1CNC(=O)[C@H](CCc1ccccc1)NC(=O)[C@@H](NC(=O)C1(C)CCNCC1)CC(=O)N1CCCC(CCO2)C1 (stereo partly drawn) [Compound 136, 4-methyl-N-((9S,12S)-5^4-methyl-8,11,14-trioxo-9-phenethyl-4-oxa-7,10-diaza-1(3,1)-piperidina-5(1,3)-benzenacyclotetradecaphane-12-yl)piperidine-4-carboxamide] | > 7.00 | 6.30 to 7.00 | > 7.00 |
| CC(=O)N[C@H]1CCC(=O)N2CCOC(CCOc3ccc(C)c(c3)CNC(=O)[C@H](CCc3ccccc3)NC1=O)C2 (stereo partly drawn) [Compound 143, N-((9S,12S)-5^4-methyl-8,11,15-trioxo-9-phenethyl-4-oxa-7,10-diaza-1(2,4)-morpholina-5(1,3)-benzenacyclopentadecaphane-12-yl)acetamide] | > 7.00 | 6.30 to 7.00 | > 7.00 |
| CC(=O)N[C@H]1CCC(=O)N2CCCC(C2)Oc2ccc(C)c(c2)CNC(=O)[C@H](CCc2ccccc2)NC1=O (stereo partly drawn) [Compound 148, N-((7S,10S)-3^4-methyl-6,9,13-trioxo-7-phenethyl-2-oxa-5,8-diaza-1(3,1)-piperidina-3(1,3)-benzenacyclotridecaphane-10-yl)acetamide] | 5.30 to 6.00 | 6.30 to 7.00 | 6.00 to 6.30 |
| Cc1ccc2cc1CNC(=O)[C@H](CCc1ccccc1)NC(=O)[C@@H](NC(=O)C1CCNCC1(F)F)CC(=O)N1CCCC(CCO2)C1 (stereo partly drawn) [Compound 152, 3,3-difluoro-N-((9S,12S)-5^4-methyl-8,11,14-trioxo-9-phenethyl-4-oxa-7,10-diaza-1(3,1)-piperidina-5(1,3)-benzenacyclotetradecaphane-12-yl)piperidine-4-carboxamide] | > 7.00 | > 7.00 | > 7.00 |
| Cc1ccc2cc1CNC(=O)[C@H](CCc1ccccc1)NC(=O)[C@@H](NC(=O)C1CCC(C(F)(F)F)N1)CC(=O)N1CCCC(CCO2)C1 (stereo partly drawn) [Compound 157, N-((9S,12S)-5^4-methyl-8,11,14-trioxo-9-phenethyl-4-oxa-7,10-diaza-1(3,1)-piperidina-5(1,3)-benzenacyclotetradecaphane-12-yl)-5-(trifluoromethyl)pyrrolidine-2-carboxamide] | > 7.00 | > 7.00 | > 7.00 |
| Cc1ccc2cc1CNC(=O)[C@H](CCc1ccccc1)NC(=O)[C@@H](NC(=O)C1(N)COC1)CC(=O)N1CCCC(CCO2)C1 (stereo partly drawn) [Compound 158, 3-amino-N-((9S,12S)-5^4-methyl-8,11,14-trioxo-9-phenethyl-4-oxa-7,10-diaza-1(3,1)-piperidina-5(1,3)-benzenacyclotetradecaphane-12-yl)oxetane-3-carboxamide] | > 7.00 | > 7.00 | > 7.00 |
| Cc1ccc2cc1CNC(=O)[C@H](CCc1ccccc1)NC(=O)[C@@H](NC(=O)C1(N)CCOC1)CC(=O)N1CCCC(CCO2)C1 (stereo partly drawn) [Compound 159, 3-amino-N-((9S,12S)-5^4-methyl-8,11,14-trioxo-9-phenethyl-4-oxa-7,10-diaza-1(3,1)-piperidina-5(1,3)-benzenacyclotetradecaphane-12-yl)tetrahydrofuran-3-carboxamide] | > 7.00 | > 7.00 | > 7.00 |
| Cc1ccc2cc1CNC(=O)[C@H](CCc1ccccc1)NC(=O)[C@@H](NC(=O)C1CCN1)CC(=O)N1CCCC(CCO2)C1 (stereo partly drawn) [Compound 160, (2R)-N-((9S,12S)-5^4-methyl-8,11,14-trioxo-9-phenethyl-4-oxa-7,10-diaza-1(3,1)-piperidina-5(1,3)-benzenacyclotetradecaphane-12-yl)azetidine-2-carboxamide] | > 7.00 | > 7.00 | > 7.00 |
| CC(=O)N[C@H]1CCC(=O)NCCCCOc2ccc(C)c(c2)CNC(=O)[C@H](CCc2ccccc2)NC1=O [Compound 171, N-((11S,14S)-1^4-methyl-8,12,15-trioxo-14-phenethyl-2-oxa-7,13,16-triaza-1(1,3)-benzenacycloheptadecaphane-11-yl)acetamide] | 6.30 to 7.00 | 6.30 to 7.00 | > 7.00 |
| Cc1nc2cc(CCC(=O)N[C@H]3CC(=O)N4CCCC(CCOc5ccc(C)c(c5)CNC(=O)[C@H](CCc5ccccc5)NC3=O)C4)ccc2[nH]1 (stereo partly drawn) [Compound 174, 3-(2-methyl-1H-benzo[d]imidazol-6-yl)-N-((9S,12S)-5^4-methyl-8,11,14-trioxo-9-phenethyl-4-oxa-7,10-diaza-1(3,1)-piperidina-5(1,3)-benzenacyclotetradecaphane-12-yl)propanamide] | > 7.00 | > 7.00 | > 7.00 |
| Cc1ccc2cc1CNC(=O)[C@H](CCc1ccccc1)NC(=O)[C@@H](NC(=O)CCc1ccc(Br)cc1)CC(=O)N1CCCC(CCO2)C1 (stereo partly drawn) [Compound 175, 3-(4-bromophenyl)-N-((9S,12S)-5^4-methyl-8,11,14-trioxo-9-phenethyl-4-oxa-7,10-diaza-1(3,1)-piperidina-5(1,3)-benzenacyclotetradecaphane-12-yl)propanamide] | > 7.00 | > 7.00 | > 7.00 |
| Cc1ccc2cc1CNC(=O)[C@H](CCc1ccccc1)NC(=O)[C@@H](NC(=O)CCc1ccc(-c3ccccc3)cc1)CC(=O)N1CCCC(CCO2)C1 (stereo partly drawn) [Compound 176, 3-([1,1′-biphenyl]-4-yl)-N-((9S,12S)-5^4-methyl-8,11,14-trioxo-9-phenethyl-4-oxa-7,10-diaza-1(3,1)-piperidina-5(1,3)-benzenacyclotetradecaphane-12-yl)propanamide] | > 7.00 | > 7.00 | > 7.00 |
| Cc1ccc2cc1CNC(=O)[C@H](CCc1ccccc1)NC(=O)[C@@H](NC(=O)CCc1ccccc1-c1ccccc1)CC(=O)N1CCCC(CCO2)C1 (stereo partly drawn) [Compound 177] | > 7.00 | > 7.00 | > 7.00 |
| Cc1ccc2cc1CNC(=O)[C@H](CCc1ccccc1)NC(=O)[C@@H](NC(=O)[C@@H](N)Cc1ccccc1)CC(=O)N1CCCC(CCO2)C1 (stereo partly drawn) [Compound 179, (2R)-2-amino-N-((9S,12S)-5^4-methyl-8,11,14-trioxo-9-phenethyl-4-oxa-7,10-diaza-1(3,1)-piperidina-5(1,3)-benzenacyclotetradecaphane-12-yl)-3-phenylpropanamide-] | > 7.00 | > 7.00 | > 7.00 |
| C=CS(=O)(=O)N[C@H]1CC(=O)N2CCCC(CCOc3ccc(C)c(c3)CNC(=O)[C@H](CCc3ccccc3)NC1=O)C2 (stereo partly drawn) [Compound 180, N-((9S,12S)-5^4-methyl-8,11,14-trioxo-9-phenethyl-4-oxa-7,10-diaza-1(3,1)-piperidina-5(1,3)-benzenacyclotetradecaphane-12-yl)ethenesulfonamide] | > 7.00 | > 7.00 | > 7.00 |
| C=CC(=O)N[C@H]1CC(=O)N2CCCC(CCOc3ccc(C)c(c3)CNC(=O)[C@H](CCc3ccccc3)NC1=O)C2 (stereo partly drawn) [Compound 181, N-((9S,12S)-5^4-methyl-8,11,14-trioxo-9-phenethyl-4-oxa-7,10-diaza-1(3,1)-piperidina-5(1,3)-benzenacyclotetradecaphane-12-yl)acrylamide] | > 7.00 | > 7.00 | > 7.00 |
| Cc1ccc2cc1CNC(=O)[C@H](CCc1ccccc1)NC(=O)[C@@H](NC(=O)CCc1ccc3[nH]ccc3c1)CC(=O)N1CCCC(CCO2)C1 (stereo partly drawn) [Compound 182, 3-(1H-indol-5-yl)-N-((9S,12S)-5^4-methyl-8,11,14-trioxo-9-phenethyl-4-oxa-7,10-diaza-1(3,1)-piperidina-5(1,3)-benzenacyclotetradecaphane-12-yl)propanamide] | > 7.00 | > 7.00 | > 7.00 |
| CC(=O)N[C@H]1CCCC(=O)N2CCOC(CCOc3ccc(C)c(c3)CNC(=O)[C@H](CCc3ccccc3)NC1=O)C2 (stereo partly drawn) [Compound 186, N-((9S,12S)-5^4-methyl-8,11,16-trioxo-9-phenethyl-4-oxa-7,10-diaza-1(2,4)-morpholina-5(1,3)-benzenacyclohexadecaphane-12-yl)acetamide] | > 7.00 | 6.30 to 7.00 | 6.30 to 7.00 |
